Data reported in patent US20160235752A1, “COMPOSITIONS, METHODS OF USE, AND METHODS OF TREATMENT” (THE UNIVERSITY OF NEW ORLEANS, priority 2013, published 2016).
≈ marks a conversion by molar mass, not a printed value.

How the values were obtained:
[1] = system: Candida albicans (ATCC no. 10231); assay: MIC determination by broth microdilution (NCCLS), visual scoring; assay type: cell-based; conditions: for MIC80: Candida albicans, ATCC10231, read-out: MIC80 C. albicans
Summary of the method: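 NCCLS broth microdilution in RPMI 1640 with 10 mM HEPES, final compound 0.5–128 μg/mL, DMSO ≤1%. Inoculum from 0.5 McFarland stock diluted 1:50; incubated 35 °C for 48–72 h. MIC scored visually as lowest concentration giving ~80% growth reduction versus drug-free wells.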

[2] = system: Candida glabrata (ATCC no. 48435); assay: as above; assay type: cell-based; conditions: for MIC80: Nakaseomyces glabratus, ATCC48435, read-out: MIC80 C. glabrata
Procedure: The antifungal activity of the 2,4,6-pyrimidinetrione analogs shown in Schemes 2-6 were evaluated in vitro using Candida albicans (ATCC no. 10231) and Candida glabrata (ATCC no 48435). All assays were done in accordance with NCCLS reference documents^29. The results of these screenings are summarized in Tables 1-9 as the minimal inhibitory concentrations that inhibited more than 80% fungal growth as compared to the positive controls in 1% DMSO and RPMI media. All MIC screens were done using a visual scoring method as opposed to spectroscopic methods of analysis, due to the physical properties of many of the compounds altering their absorbance spectra relative to the positive, negative and drug controls.
None of the compounds tested over the course of these studies were soluble in water and DMSO was used to dilute each compound tested. Master stock concentrations of all tested compounds were prepared to ensure that the maximum final concentration of DMSO was 1% or less. Subsequent 2-fold serial dilutions were made using sterile water to a final concentration of 1280-5.00 μg/ml. A final 10-fold dilution of each drug was made by aliquotting 0.1 mL of each drug dilution into 0.9 mL of fungal suspension in RPMI 1640 media with 10 mM HEPES buffer added (see methodology below), giving final concentrations tested in the range of 128-0.5 μg/ml.
Antifungal susceptibility studies and minimal inhibitory concentrations (MIC) values for Candida albicans (ATCC no. 10231) and Candida glabrata (ATCC no. 48435) were determined by the broth microdilution technique in accordance with NCCLS reference documents. Microdilution panels ranged from 0.5 to 128 μg/mL. All organisms were subcultured on Sabouraud agar and passaged to ensure purity and viability. The initiating inocula were prepared by picking 5-7 isolated colonies ˜1 mm in diameter from freshly prepared YM agar plates. Colonies were resuspended in sterile water, vortexed and the cell density was adjusted spectrophotometrically to the transmittance of a 0.5 McFarland standard at a wavelength of 530 nm, to yield a stock suspension of 1×10^6-5×10^6 cells/mL. The stock was allowed to hydrate for 30 minutes at room temperature. A working suspension was then made by diluting the stock 1:50 with RPMI 1640 media containing HEPES buffer. The working suspension was used for all assays. The plates were incubated at 35° C. for 48-72 hours in a humid atmosphere. Growth was scored visually. MIC values are defined as the lowest concentration of agent that prevents any discernible growth, ˜80% reduction of growth, as compared with drug-free control wells. All assays were run in parallel using either fluconazole or amphotericin B at the NCCLS recommended concentrations^29 as a drug control (Sigma-Aldrich).

[3] = Table 2, 5-Arylidene-2,4,6-pyrimidinetriones
[4] = Table 3, 5-Alkylated Pyrimidinetriones
[5] = Table 1, 5-Acyl-2,4,6-pyrimidinetriones, >80% growth inhibition, RPMI, 1% DMSO
[6] = Table 7, Phenylhydrazones of 5-Acylpyrimidinetriones
[7] = Table 5, Schiff Bases of 5-acylpyrimidinetriones
[8] = Table 4, 5,5-Dialkylated Pyrimidinetriones
[9] = Table 8, N-Acylhydrazones of 5-Acylpyrimidinetriones

CN1C(=O)C(=Cc2ccc(O)cc2)C(=O)N(C)C1=O [BA45]
MIC80 C. albicans [1, 3]: — (none of the 5-acyl-2,4,6-pyrimidinetriones, 5-alkylated pyrimidinetriones or the 5,5-dialkylated pyrimidinetriones showed antifungal activity through 125 μg/mL)
MIC80 C. glabrata [2, 3]: — (none of the 5-acyl-2,4,6-pyrimidinetriones, 5-alkylated pyrimidinetriones or the 5,5-dialkylated pyrimidinetriones showed antifungal activity through 125 μg/mL)

CN1C(=O)C(CCCc2ccccc2)C(=O)N(C)C1=O [BA67]
MIC80 C. albicans [1, 4]: — (none of the 5-acyl-2,4,6-pyrimidinetriones, 5-alkylated pyrimidinetriones or the 5,5-dialkylated pyrimidinetriones showed antifungal activity through 125 μg/mL)
MIC80 C. glabrata [2, 4]: — (none of the 5-acyl-2,4,6-pyrimidinetriones, 5-alkylated pyrimidinetriones or the 5,5-dialkylated pyrimidinetriones showed antifungal activity through 125 μg/mL)

COc1ccc(C(=O)C2C(=O)NC(=O)NC2=O)cc1 [BA14]
MIC80 C. albicans [1, 5]: — (none of the 5-acyl-2,4,6-pyrimidinetriones, 5-alkylated pyrimidinetriones or the 5,5-dialkylated pyrimidinetriones showed antifungal activity through 125 μg/mL)
MIC80 C. glabrata [2, 5]: — (none of the 5-acyl-2,4,6-pyrimidinetriones, 5-alkylated pyrimidinetriones or the 5,5-dialkylated pyrimidinetriones showed antifungal activity through 125 μg/mL)

COc1ccc(C=C2C(=O)N(C)C(=O)N(C)C2=O)cc1 [BA50]
MIC80 C. albicans [1, 3]: — (none of the 5-acyl-2,4,6-pyrimidinetriones, 5-alkylated pyrimidinetriones or the 5,5-dialkylated pyrimidinetriones showed antifungal activity through 125 μg/mL)
MIC80 C. glabrata [2, 3]: — (none of the 5-acyl-2,4,6-pyrimidinetriones, 5-alkylated pyrimidinetriones or the 5,5-dialkylated pyrimidinetriones showed antifungal activity through 125 μg/mL)

O=C1NC(=O)C(C(=O)c2ccc([N+](=O)[O-])cc2)C(=O)N1 [BA6]
MIC80 C. albicans [1, 5]: — (none of the 5-acyl-2,4,6-pyrimidinetriones, 5-alkylated pyrimidinetriones or the 5,5-dialkylated pyrimidinetriones showed antifungal activity through 125 μg/mL)
MIC80 C. glabrata [2, 5]: — (none of the 5-acyl-2,4,6-pyrimidinetriones, 5-alkylated pyrimidinetriones or the 5,5-dialkylated pyrimidinetriones showed antifungal activity through 125 μg/mL)

O=C1NC(=O)C(C(=NNc2ccc(C(=O)O)cc2)C2C(=O)NC(=O)NC2=O)C(=O)N1 [BA38]
MIC80 C. albicans [1, 6]: — (none of the 5-acyl-2,4,6-pyrimidinetriones, 5-alkylated pyrimidinetriones or the 5,5-dialkylated pyrimidinetriones showed antifungal activity through 125 μg/mL)
MIC80 C. glabrata [2, 6]: 125 µg/mL (≈ 300 µM)

CC(=Nc1ccccc1)C1C(=O)NC(=O)NC1=O [BA92]
MIC80 C. albicans [1, 7]: — (none of the 5-acyl-2,4,6-pyrimidinetriones, 5-alkylated pyrimidinetriones or the 5,5-dialkylated pyrimidinetriones showed antifungal activity through 125 μg/mL)
MIC80 C. glabrata [2, 7]: — (none of the 5-acyl-2,4,6-pyrimidinetriones, 5-alkylated pyrimidinetriones or the 5,5-dialkylated pyrimidinetriones showed antifungal activity through 125 μg/mL)

O=CC1C(=O)NC(=O)NC1=O [BA18]
MIC80 C. albicans [1, 5]: — (none of the 5-acyl-2,4,6-pyrimidinetriones, 5-alkylated pyrimidinetriones or the 5,5-dialkylated pyrimidinetriones showed antifungal activity through 125 μg/mL)
MIC80 C. glabrata [2, 5]: — (none of the 5-acyl-2,4,6-pyrimidinetriones, 5-alkylated pyrimidinetriones or the 5,5-dialkylated pyrimidinetriones showed antifungal activity through 125 μg/mL)

CN1C(=O)C(/C=N/Nc2ccc([N+](=O)[O-])cc2)C(=O)N(C)C1=O [BA23, 1,3-Dimethyl-5-{(E)-[2-(4-nitrophenyl)hydrazinylidene]methyl}pyrimidine-2,4,6-trione]
MIC80 [1]: 2 µg/mL (≈ 6.26 µM)
MIC80 [2]: 2 µg/mL (≈ 6.26 µM)

CN(C)c1ccc(CC2(Cc3ccc(N(C)C)cc3)C(=O)NC(=O)NC2=O)cc1 [BA71]
MIC80 C. albicans [1, 8]: — (none of the 5-acyl-2,4,6-pyrimidinetriones, 5-alkylated pyrimidinetriones or the 5,5-dialkylated pyrimidinetriones showed antifungal activity through 125 μg/mL)
MIC80 C. glabrata [2, 8]: — (none of the 5-acyl-2,4,6-pyrimidinetriones, 5-alkylated pyrimidinetriones or the 5,5-dialkylated pyrimidinetriones showed antifungal activity through 125 μg/mL)

O=C1NC(=O)C(/C=N/Nc2ccc([N+](=O)[O-])cc2[N+](=O)[O-])C(=O)N1 [BA24, 5-{(E)-[2-(2,4-Dinitrophenyl)hydrazinylidene]methyl}pyrimidine-2,4,6-trione]
MIC80 [1]: > 125 µg/mL
MIC80 [2]: 125 µg/mL (≈ 372 µM)

COc1ccc(C(=NCCCCCC(=O)O)C2C(=O)NC(=O)NC2=O)cc1 [BA35]
MIC80 C. albicans [1, 7]: — (none of the 5-acyl-2,4,6-pyrimidinetriones, 5-alkylated pyrimidinetriones or the 5,5-dialkylated pyrimidinetriones showed antifungal activity through 125 μg/mL)
MIC80 C. glabrata [2, 7]: — (none of the 5-acyl-2,4,6-pyrimidinetriones, 5-alkylated pyrimidinetriones or the 5,5-dialkylated pyrimidinetriones showed antifungal activity through 125 μg/mL)

O=C1NC(=O)C(C=Nc2ccccc2)C(=O)N1 [BA89]
MIC80 C. albicans [1, 7]: — (none of the 5-acyl-2,4,6-pyrimidinetriones, 5-alkylated pyrimidinetriones or the 5,5-dialkylated pyrimidinetriones showed antifungal activity through 125 μg/mL)
MIC80 C. glabrata [2, 7]: — (none of the 5-acyl-2,4,6-pyrimidinetriones, 5-alkylated pyrimidinetriones or the 5,5-dialkylated pyrimidinetriones showed antifungal activity through 125 μg/mL)

O=C1NC(=O)C(=Cc2ccoc2)C(=O)N1 [BA55]
MIC80 C. albicans [1, 3]: — (none of the 5-acyl-2,4,6-pyrimidinetriones, 5-alkylated pyrimidinetriones or the 5,5-dialkylated pyrimidinetriones showed antifungal activity through 125 μg/mL)
MIC80 C. glabrata [2, 3]: — (none of the 5-acyl-2,4,6-pyrimidinetriones, 5-alkylated pyrimidinetriones or the 5,5-dialkylated pyrimidinetriones showed antifungal activity through 125 μg/mL)

C/C(=N\Nc1ccc([N+](=O)[O-])cc1[N+](=O)[O-])C1C(=O)NC(=O)NC1=O [BA26, 5-{(1E)-1-[2-(2,4-Dinitrophenyl)hydrazinylidene]ethyl}pyrimidine-2,4,6-trione]
MIC80 [1]: > 125 µg/mL
MIC80 [2]: > 125 µg/mL

O=C1NC(=O)C(=Cc2ccccc2O)C(=O)N1 [BA47, 5-(2-hydroxybenzylidene)pyrimidine-2,4,6-trione]
MIC80 [1]: > 125 µg/mL
MIC80 [2]: 8 µg/mL (≈ 34.5 µM)

COC(=O)NN=CC1C(=O)N(C)C(=O)N(C)C1=O [BA76]
MIC80 C. albicans [1, 9]: — (none of the 5-acyl-2,4,6-pyrimidinetriones, 5-alkylated pyrimidinetriones or the 5,5-dialkylated pyrimidinetriones showed antifungal activity through 125 μg/mL)
MIC80 C. glabrata [2, 9]: — (none of the 5-acyl-2,4,6-pyrimidinetriones, 5-alkylated pyrimidinetriones or the 5,5-dialkylated pyrimidinetriones showed antifungal activity through 125 μg/mL)

O=C1NC(=O)N(c2ccccc2)C(=O)C1C(=O)c1ccc(O)cc1 (stereo not drawn) [BA13]
MIC80 C. albicans [1, 5]: — (none of the 5-acyl-2,4,6-pyrimidinetriones, 5-alkylated pyrimidinetriones or the 5,5-dialkylated pyrimidinetriones showed antifungal activity through 125 μg/mL)
MIC80 C. glabrata [2, 5]: — (none of the 5-acyl-2,4,6-pyrimidinetriones, 5-alkylated pyrimidinetriones or the 5,5-dialkylated pyrimidinetriones showed antifungal activity through 125 μg/mL)

COC(=O)NN=CC1C(=O)NC(=O)NC1=O [BA77]
MIC80 C. albicans [1, 9]: — (none of the 5-acyl-2,4,6-pyrimidinetriones, 5-alkylated pyrimidinetriones or the 5,5-dialkylated pyrimidinetriones showed antifungal activity through 125 μg/mL)
MIC80 C. glabrata [2, 9]: — (none of the 5-acyl-2,4,6-pyrimidinetriones, 5-alkylated pyrimidinetriones or the 5,5-dialkylated pyrimidinetriones showed antifungal activity through 125 μg/mL)

O=C1NC(=O)C(C(=O)c2ccccc2)C(=O)N1 [BA1, 5-benzoyl-pyrimidine-2,4,6-trione]
MIC80 [1]: > 125 µg/mL
MIC80 [2]: > 125 µg/mL

O=C1NC(=O)C(C=Nc2ccccc2O)C(=O)N1 [BA93]
inhibitory activity of Candida albicans ([1]; Schiff base derivatives, Table 5): showed inhibitory activity
MIC80 C. albicans ([1]; Table 5, values marked *: compound displayed MIC with <50% inhibition): 8* μg/mL
MIC80 C. glabrata [2, 7]: — (none of the 5-acyl-2,4,6-pyrimidinetriones, 5-alkylated pyrimidinetriones or the 5,5-dialkylated pyrimidinetriones showed antifungal activity through 125 μg/mL)

CC(=O)C1C(=O)NC(=O)N(c2ccccc2)C1=O (stereo not drawn) [BA21]
MIC80 C. albicans [1, 5]: — (none of the 5-acyl-2,4,6-pyrimidinetriones, 5-alkylated pyrimidinetriones or the 5,5-dialkylated pyrimidinetriones showed antifungal activity through 125 μg/mL)
MIC80 C. glabrata [2, 5]: — (none of the 5-acyl-2,4,6-pyrimidinetriones, 5-alkylated pyrimidinetriones or the 5,5-dialkylated pyrimidinetriones showed antifungal activity through 125 μg/mL)
